Paper PMC10611619, “[^99mTc]Tc-PentixaTec: development, extensive pre-clinical evaluation, and first human experience” (European Journal of Nuclear Medicine and Molecular Imaging, 2023)
Where a SMILES comes first, the peptide text is derived from it. Side-chain parts run from the residue outwards. [ ]: non-standard residue; d: D form. The star is where a group is joined. 2Nal = N[C@@H](Cc1ccc2ccccc2c1)C(=O)O; dNMeOrn = CN[C@H](CCCN)C(=O)O; 4Abz = Nc1ccc(C(=O)O)cc1; X1 = NCCNCC(CNCCN)C(=O)*; dDap = NC[C@@H](N)C(=O)O

Test: Patient radiation dosimetry (OLINDA/EXM, RADAR/MIRD)
Format: in vivo, human
Conditions: for Absorbed organ dose Muscle / Absorbed organ dose Osteogenic cells / Absorbed organ dose Ovaries / Absorbed organ dose Pancreas / Absorbed organ dose Red marrow / Absorbed organ dose Skin / Absorbed organ dose Small intestine / Absorbed organ dose Spleen / Absorbed organ dose Stomach wall / Absorbed organ dose Thymus / Absorbed organ dose Thyroid / Absorbed organ dose Total body / Absorbed organ dose ULI wall / Absorbed organ dose Urinary bladder wall / Absorbed organ dose Uterus / Absorbed organ dose Adrenals / Absorbed organ dose Brain / Absorbed organ dose Breast / Absorbed organ dose Gallbladder wall / Absorbed organ dose Heart wall / Absorbed organ dose Kidneys / Absorbed organ dose LLI wall / Absorbed organ dose Liver / Absorbed organ dose Lungs / Absorbed organ dose Testes: per 1 MBq
Method: Radiation dosimetry calculations were performed using the RADAR (Radiation Dose Assessment Resource) method as implemented in the OLINDA/EXM software and according to the recommendations of the Medical Internal Radiation Dose (MIRD) committee. The individual absorbed organ doses (ODs) and the effective doses (EDs) were corrected to consider the current tissue weighting factors of ICRP 103 [38]. For a detailed description of image analysis for dosimetry, please refer to the supplementary materials section.
The Xeleris^TM Dosimetry Toolkit (GE Healthcare, Milwaukee, USA) was used to perform full organ segmentation by an experienced user. This was performed manually on CT images of organs (kidneys, liver, spleen, heart, lungs, lumbar vertebrae 2-4) to define the regions and volumes of interest (VOIs) for gamma camera scans and SPECT analysis. Quantification of the activity in the VOIs was carried out as converting counts in the VOIs by a calibration factor to the average activity per milliliter and per organ.
The VOIs were transferred from SPECT/CT to the planar images. Additional ROIs for the whole body and a background region adjacent to the head were drawn on the planar images.
The VOIs were used to determine the masses of the individual organs. For the lungs, a density of 0.288 g/mL was used. For all organs not covered by any VOI, the uptake was summed as the contribution from the remainder of the body in the dose calculation.
The time-integrated activity coefficients of all contoured organs were determined using the hybrid planar/SPECT method. Thus, the shape of the time-activity curves were estimated based on the planar images using the NUKFIT software and then scaled to activity values using the SPECT/CT. The accumulated activity in the bone marrow was calculated using the activity in the lumbar vertebrae 2-4 with the assumption that these contain 6.7% of the red bone marrow.
Radiation dosimetry calculations were performed using the RADAR (Radiation Dose Assessment Resource) method as implemented in the OLINDA/EXM software and according to the recommendations of the Medical Internal Radiation Dose (MIRD) committee. The OLINDA/EXM application (version 1.0) was used to calculate the individual absorbed organ doses (ODs) and the effective doses (EDs) by using the time-integrated activity coefficients and the individual patients’ organ masses. A mass of 1500 g for the red bone marrow as assumed for all patients. The EDs were afterwards corrected to consider the current tissue weighting factors of ICRP 103 [16]. The absorbed OD and ED were evaluated for each patient and then averaged across all the patients.

Question: What does the source list for `C[C@@H](NC(=O)[C@@H](CCCNC(=N)N)NC(=O)[C@@H](CN)NC(=O)C(CNCCN)CNCCN)C(=O)Nc1ccc(C(=O)NCCC[C@@H]2C(=O)N[C@@H](CCCNC(=N)N)C(=O)N[C@@H](Cc3ccc4ccccc4c3)C(=O)NCC(=O)N[C@H](Cc3ccc(O)cc3)C(=O)N2C)cc1` [[^99mTc]Tc-N4-L6-CPCR4, [^99mTc]Tc-N4-dap-r-a-Abz-CPCR4, metal not drawn] (cyclo([dY][dNMeOrn]([4Abz-dA-dR-dDap-X1])R[2Nal]G))?
Answer: Absorbed organ dose Muscle (Patient 3): 0.0044 mGy; Absorbed organ dose Osteogenic cells (Patient 3): 0.0184 mGy; Absorbed organ dose Ovaries (Patient 3): 0.0064 mGy; Absorbed organ dose Pancreas (Patient 3): 0.0092 mGy; Absorbed organ dose Red marrow (Patient 3): 0.0123 mGy; Absorbed organ dose Skin (Patient 3): 0.0027 mGy; Absorbed organ dose Small intestine (Patient 3): 0.0062 mGy; Absorbed organ dose Spleen (Patient 3): 0.0202 mGy; Absorbed organ dose Stomach wall (Patient 3): 0.0066 mGy; Absorbed organ dose Thymus (Patient 3): 0.0045 mGy; Absorbed organ dose Thyroid (Patient 3): 0.0039 mGy; Absorbed organ dose Total body (Patient 3): 0.0052 mGy; Absorbed organ dose ULI wall (Patient 3): 0.0063 mGy; Absorbed organ dose Urinary bladder wall (Patient 3): 0.0053 mGy; Absorbed organ dose Uterus (Patient 3): 0.0059 mGy; Absorbed organ dose Adrenals (Patient 4): 0.00524 mGy; Absorbed organ dose Brain (Patient 4): 0.00278 mGy; Absorbed organ dose Breast (Patient 4): 0.00227 mGy; Absorbed organ dose Gallbladder wall (Patient 4): 0.00502 mGy; Absorbed organ dose Heart wall (Patient 4): 0.00317 mGy; Absorbed organ dose Kidneys (Patient 4): 0.00936 mGy; Absorbed organ dose LLI wall (Patient 4): 0.00428 mGy; Absorbed organ dose Liver (Patient 4): 0.00636 mGy; Absorbed organ dose Lungs (Patient 4): 0.00337 mGy; Absorbed organ dose Muscle (Patient 4): 0.00318 mGy; Absorbed organ dose Osteogenic cells (Patient 4): 0.011 mGy; Absorbed organ dose Ovaries (Patient 4): 0.00451 mGy; Absorbed organ dose Pancreas (Patient 4): 0.00571 mGy; Absorbed organ dose Red marrow (Patient 4): 0.00617 mGy; Absorbed organ dose Skin (Patient 4): 0.00209 mGy; Absorbed organ dose Small intestine (Patient 4): 0.00455 mGy; Absorbed organ dose Spleen (Patient 4): 0.0188 mGy; Absorbed organ dose Stomach wall (Patient 4): 0.00441 mGy; Absorbed organ dose Testes (Patient 4): 0.00282 mGy; Absorbed organ dose Thymus (Patient 4): 0.00324 mGy; Absorbed organ dose Thyroid (Patient 4): 0.00329 mGy; Absorbed organ dose Total body (Patient 4): 0.00351 mGy; Absorbed organ dose ULI wall (Patient 4): 0.00441 mGy; Absorbed organ dose Urinary bladder wall (Patient 4): 0.00385 mGy; Absorbed organ dose Uterus (Patient 4): 0.0044 mGy; Absorbed organ dose Adrenals (Range Max): 0.0083 mGy; Absorbed organ dose Brain (Range Max): 0.0039 mGy; Absorbed organ dose Breast (Range Max): 0.0032 mGy; Absorbed organ dose Gallbladder wall (Range Max): 0.0073 mGy; Absorbed organ dose Heart wall (Range Max): 0.0054 mGy; Absorbed organ dose Kidneys (Range Max): 0.0137 mGy; Absorbed organ dose LLI wall (Range Max): 0.0062 mGy; Absorbed organ dose Liver (Range Max): 0.0089 mGy; Absorbed organ dose Lungs (Range Max): 0.0079 mGy; Absorbed organ dose Muscle (Range Max): 0.0044 mGy; Absorbed organ dose Osteogenic cells (Range Max): 0.0184 mGy; Absorbed organ dose Ovaries (Range Max): 0.0064 mGy; Absorbed organ dose Pancreas (Range Max): 0.0092 mGy; Absorbed organ dose Red marrow (Range Max): 0.0135 mGy; Absorbed organ dose Skin (Range Max): 0.0027 mGy; Absorbed organ dose Small intestine (Range Max): 0.0062 mGy; Absorbed organ dose Spleen (Range Max): 0.0238 mGy; Absorbed organ dose Stomach wall (Range Max): 0.0066 mGy; Absorbed organ dose Testes (Range Max): 0.0028 mGy; Absorbed organ dose Thymus (Range Max): 0.0045 mGy; Absorbed organ dose Thyroid (Range Max): 0.0039 mGy; Absorbed organ dose Total body (Range Max): 0.0052 mGy; Absorbed organ dose ULI wall (Range Max): 0.0063 mGy; Absorbed organ dose Urinary bladder wall (Range Max): 0.0053 mGy; Absorbed organ dose Uterus (Range Max): 0.0059 mGy; Absorbed organ dose Adrenals (Range Min): 0.0052 mGy; Absorbed organ dose Brain (Range Min): 0.0023 mGy; Absorbed organ dose Breast (Range Min): 0.0021 mGy; Absorbed organ dose Gallbladder wall (Range Min): 0.0050 mGy; Absorbed organ dose Heart wall (Range Min): 0.0032 mGy; Absorbed organ dose Kidneys (Range Min): 0.0094 mGy; Absorbed organ dose LLI wall (Range Min): 0.0037 mGy; Absorbed organ dose Liver (Range Min): 0.0064 mGy; Absorbed organ dose Lungs (Range Min): 0.0034 mGy; Absorbed organ dose Muscle (Range Min): 0.0028 mGy; Absorbed organ dose Osteogenic cells (Range Min): 0.0099 mGy; Absorbed organ dose Ovaries (Range Min): 0.0040 mGy; Absorbed organ dose Pancreas (Range Min): 0.0055 mGy; Absorbed organ dose Red marrow (Range Min): 0.0062 mGy; Absorbed organ dose Skin (Range Min): 0.0018 mGy; Absorbed organ dose Small intestine (Range Min): 0.0041 mGy; Absorbed organ dose Spleen (Range Min): 0.0161 mGy; Absorbed organ dose Stomach wall (Range Min): 0.0040 mGy; Absorbed organ dose Testes (Range Min): 0.0023 mGy; Absorbed organ dose Thymus (Range Min): 0.0030 mGy; Absorbed organ dose Thyroid (Range Min): 0.0028 mGy; Absorbed organ dose Total body (Range Min): 0.0028 mGy; Absorbed organ dose ULI wall (Range Min): 0.0040 mGy; Absorbed organ dose Urinary bladder wall (Range Min): 0.0033 mGy; Absorbed organ dose Uterus (Range Min): 0.0038 mGy; effective dose, range (per 500 MBq): 2.1–3.4 mSv; effective dose, median (standard activity of 500 MBq): 2.7 mSv
